Data: patent US11453671B2, “Pyrazolopyrimidine inhibitors of JAK kinases and uses thereof” (Genentech, Inc., priority 2020, dated 2022)
Like-named read-outs stand apart in the source and are kept apart here.

Tests used:
[1] = system: JAK1: IL-13-stimulated STAT6 phosphorylation in BEAS-2B cells; assay: P-STAT6 BEAS-2B+IL-13 Cell Assay; type: cell-based, human; settings: IL-13 stimulation, read-out: Cellular JAK1 PSTAT6 BEAS2B + IL13 IC50
Method in brief: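 BEAS-2B cells in BEGM preincubated 1 h at 37 °C with 10-point, 1:2 compound dilutions, then stimulated 15 min with IL-13 (250 ng/mL stock). Lysate pSTAT6 (Tyr641) captured on total-STAT6 antibody and read by MSD electrochemiluminescence; IC50 from four-parameter logistic fit.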

[2] = target: T1, recombinant human JAK1 kinase domain protein (Residues 854-1154) (Homo sapiens, UniProt P23458); assay: JAK1 biochemical assay (microfluidic mobility shift, peptide phosphorylation); settings: 25 μM ATP, 1 nM total JAK1; read-out: Enzyme JAK1 Ki
T1 construct: human JAK1 kinase domain protein (Residues 854-1154); purchased Proteros Biostructures GmbH (Martinsried, Germany); host or cells: insect cells
T1 sequence (P23458 854-1154): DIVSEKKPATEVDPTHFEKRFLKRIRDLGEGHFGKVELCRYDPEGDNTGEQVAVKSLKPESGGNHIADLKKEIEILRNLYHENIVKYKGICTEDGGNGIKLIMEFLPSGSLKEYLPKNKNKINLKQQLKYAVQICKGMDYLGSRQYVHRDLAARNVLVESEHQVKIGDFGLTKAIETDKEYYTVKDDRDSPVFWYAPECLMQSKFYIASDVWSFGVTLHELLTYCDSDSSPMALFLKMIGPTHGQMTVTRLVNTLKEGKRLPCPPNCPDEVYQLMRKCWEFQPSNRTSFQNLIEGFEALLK
Description: JAK1 and JAK2 Biochemical Assays

[3] = Mouse lung tissue binding (equilibrium dialysis, RED); type: in vitro ADME; settings: for Mouse LTB %: mouse lung tissue binding, % bound (Table 3)
Method: Mouse lung tissue binding. A high bound fraction or percentage of JAK1/JAK2 inhibitors to lung tissue may be undesirable since it can reduce the amount of free drug available to inhibit JAK1 or JAK2.
(a) Tissue binding experiments were performed in triplicate (n=3) using a Single-Use RED Plate by following the standard protocol. Initially, individual drugs were spiked to tissue homogenates (pH 7.4) to achieve a final concentration of 1 μM, and then 300 μL of drug-tissue homogenate mixtures were transferred to the donor wells of the RED plate which was pre-loaded with 500 μL phosphate buffer saline (133 mM) on the receiver wells. The RED plate was sealed with a gas permeable membrane and placed in a shaking incubator (450 rpm, VWR Symphony™) for 6 hr at 37° C. with 5% CO2. At the end of incubation, aliquots of 30 μL samples were taken out of the RED device and matrix equalized with an equal volume of tissue homogenates or buffer, and resulting samples were then immediately quenched with ice cold acetonitrile (sample:acetonitrile 1:4) containing either propranolol or labetalol as an internal standard. After shaking for 15 min at 500 rpm on a Thermo Scientific Compact Digital MicroPlate Shaker, all samples were then subjected to centrifugation at 3700 rpm for 15 min (Beckman Coulter Allegra X 12R) to remove plasma protein. Subsequently, supernatants were collected and then diluted with an equal volume of water prior to LC-MS/MS analysis.
(b) In an alternate procedure, the extent of lung tissue binding of test compound to mouse lung homogenate may also be determined by equilibrium dialysis using Pierce RED (rapid equilibrium dialysis) devices (Fisher Scientific 89811 & 89809). A 10 mM solution of compound in DMSO was prepared and diluted to 1 mM with DMSO. An aliquot of this 1 mM (4 μL) was added into lung homogenate (dilution factor of 1:9, lung tissue:potassium phosphate buffer (0.05 M, pH 7.4)) to give a final compound incubation concentration of 5 μM with solvent accounting for 0.5% (v/v) of the final incubation volume.
For each assay, the percentage lung tissue bound was determined in triplicate. Lung homogenate (200 μL) was loaded into one side of a RED device insert, in triplicate, and 350 μL of potassium phosphate buffer was loaded into the other side. The RED devices were sealed and incubated for 4 hours at ca. 37° C. on an orbital shaker (˜150 rpm).
Following incubation, an aliquot of lung homogenate (8 μL) and an aliquot of dialysate (72 μL) were matrix matched (lung homogenate with 72 μL phosphate buffer, dialysate with 8 μL lung homogenate) ahead of analysis. Protein was precipitated from the samples with the addition of 160 μL of acetonitrile containing internal standard. The same matrix matching and protein precipitation procedure was performed on lung homogenate aliquots sampled at the start of the experiment (t=0 min samples), for the assessment of the mass balance. The quenched samples were centrifuged (4000 rpm, 30 min, 4° C.) and the resultant supernatant diluted with water (3:1 (v/v), supernatant: water) and the samples analysed for parent compound by liquid chromatography mass spectrometry assay.
The unbound fraction (fu) in lung homogenate was determined from the ratio of the dialysate to homogenate peak area, corrected to take into account the lung homogenate dilution (D) to enable an estimate of whole lung tissue binding using the following equations: Undiluted fu=(1/D)/[((1/Apparent fu)−1)+(1/D)] Corrected fraction bound (%)=(1-undiluted fu)*100

| Structure (SMILES) | IC50 [1] | Ki [2] | Mouse LTB % [3] | IC50 ([1]; Homo sapiens, BEAS-2B) | Lung tissue binding, % ([3]; Table 5, sulfone-sulfide analog pairs) |
| --- | --- | --- | --- | --- | --- |
| CC(CO)S(=O)(=O)c1ccc(OC(F)F)c(-c2nn(C)cc2NC(=O)c2cnn3cccnc23)c1 (single isomer, unassigned) [Example 23, N-[3-[2-(difluoromethoxy)-5-(2-hydroxy-1-methyl-ethyl)sulfonyl-phenyl]-1-methyl-pyrazol-4-yl]pyrazolo[1,5-a]pyrimidine-3-carboxamide] | 14 nM | 0.26 nM | 82.1% |  |  |
| CC(CO)S(=O)(=O)c1ccc(OC(F)F)c(-c2nn(C)cc2NC(=O)c2cnn3cccnc23)c1 (single isomer, unassigned) [Example 24, N-[3-[2-(difluoromethoxy)-5-(2-hydroxy-1-methyl-ethyl)sulfonyl-phenyl]-1-methyl-pyrazol-4-yl]pyrazolo[1,5-a]pyrimidine-3-carboxamide] | 30 nM | 0.46 nM | 81.7% |  |  |
| Cn1cc(NC(=O)c2cnn3cccnc23)c(-c2cc(S(=O)(=O)C3CCCNC3)ccc2OC(F)F)n1 (single isomer, unassigned) [Example 37, N-[3-[2-(difluoromethoxy)-5-(3-piperidylsulfonyl)phenyl]-1-methyl-pyrazol-4-yl]pyrazolo[1,5-a]pyrimidine-3-carboxamide] |  | 0.69 nM | 90.1% | 46 nM |  |
| C[C@H](O)CS(=O)(=O)c1ccc(OC(F)F)c(-c2nn(C)cc2NC(=O)c2cnn3cccnc23)c1 (stereo in doubt) [Example 15, N-[3-[2-(difluoromethoxy)-5-[rac-(2S)-2-hydroxypropyl]sulfonyl-phenyl]-1-methyl-pyrazol-4-yl]pyrazolo[1,5-a]pyrimidine-3-carboxamide] |  | 0.43 nM | 85.7% | 20 nM |  |
| C[C@@H](O)CS(=O)(=O)c1ccc(OC(F)F)c(-c2nn(C)cc2NC(=O)c2cnn3cccnc23)c1 (stereo in doubt) [Example 25, N-[3-[2-(difluoromethoxy)-5-[rac-(2R)-2-hydroxypropyl]sulfonyl-phenyl]-1-methyl-pyrazol-4-yl]pyrazolo[1,5-a]pyrimidine-3-carboxamide] |  | 0.48 nM | 85% | 20 nM |  |
| CN1CCCC1CCn1cc(S(=O)(=O)c2ccc(OC(F)F)c(-c3nn(C)cc3NC(=O)c3cnn4cccnc34)c2)cn1 (stereo in doubt) [Example 56, N-[3-[2-(difluoromethoxy)-5-[1-[2-[(2R)-1-methylpyrrolidin-2-yl]ethyl]pyrazol-4-yl]sulfonyl-phenyl]-1-methyl-pyrazol-4-yl]pyrazolo[1,5-a]pyrimidine-3-carboxamide] |  | 0.71 nM | 91.4% | 56 nM |  |
| Cn1cc(NC(=O)c2cnn3cccnc23)c(-c2cc(S(=O)(=O)C3CCC3)ccc2OC(F)F)n1 [Example 2, N-[3-[5-cyclobutylsulfonyl-2-(difluoromethoxy)phenyl]-1-methyl-pyrazol-4-yl]pyrazolo[1,5-a]pyrimidine-3-carboxamide] |  | 0.5 nM | 88.1% | 15 nM |  |
| Cn1cc(NC(=O)c2cnn3cccnc23)c(-c2cc(S(=O)(=O)CCO)ccc2OC(F)F)n1 [Example 5, N-[3-[2-(difluoromethoxy)-5-(2-hydroxyethylsulfonyl)phenyl]-1-methyl-pyrazol-4-yl]pyrazolo[1,5-a]pyrimidine-3-carboxamide] |  | 0.43 nM | 80.1% | 35 nM |  |
| CN(C)CCS(=O)(=O)c1ccc(OC(F)F)c(-c2nn(C)cc2NC(=O)c2cnn3cccnc23)c1 [Example 7, N-[3-[2-(difluoromethoxy)-5-[2-(dimethylamino)ethylsulfonyl]phenyl]-1-methyl-pyrazol-4-yl]pyrazolo[1,5-a]pyrimidine-3-carboxamide] |  | 0.88 nM | 78.8% | 32 nM |  |
| COc1cccc(S(=O)(=O)c2ccc(OC(F)F)c(-c3nn(C)cc3NC(=O)c3cnn4cccnc34)c2)c1 [Example 12, N-[3-[2-(difluoromethoxy)-5-(3-methoxyphenyl)sulfonyl-phenyl]-1-methyl-pyrazol-4-yl]pyrazolo[1,5-a]pyrimidine-3-carboxamide] |  | 0.24 nM | 97.1% | 18 nM |  |
| Cn1cc(NC(=O)c2cnn3cccnc23)c(-c2cc(S(=O)(=O)C3COC3)ccc2OC(F)F)n1 [Example 13, N-[3-[2-(difluoromethoxy)-5-(oxetan-3-ylsulfonyl)phenyl]-1-methyl-pyrazol-4-yl]pyrazolo[1,5-a]pyrimidine-3-carboxamide] |  | 0.4 nM | 85% | 33 nM | 85.8% |
| COCCS(=O)(=O)c1ccc(OC(F)F)c(-c2nn(C)cc2NC(=O)c2cnn3cccnc23)c1 [Example 14, N-[3-[2-(difluoromethoxy)-5-(2-methoxyethylsulfonyl)phenyl]-1-methyl-pyrazol-4-yl]pyrazolo[1,5-a]pyrimidine-3-carboxamide] |  | 0.49 nM | 80.1% | 23 nM |  |
| Cn1cc(NC(=O)c2cnn3cccnc23)c(-c2cc(S(=O)(=O)c3ccncc3)ccc2OC(F)F)n1 [Example 16, N-[3-[2-(difluoromethoxy)-5-(4-pyridylsulfonyl)phenyl]-1-methyl-pyrazol-4-yl]pyrazolo[1,5-a]pyrimidine-3-carboxamide] |  | 0.32 nM | 87.3% | 15 nM |  |
| Cn1cc(NC(=O)c2cnn3cccnc23)c(-c2cc(S(C)(=O)=O)ccc2OC(F)F)n1 [Example 17, N-[3-[2-(difluoromethoxy)-5-methylsulfonyl-phenyl]-1-methyl-pyrazol-4-yl]pyrazolo[1,5-a]pyrimidine-3-carboxamide] |  | 0.22 nM | 85.8% | 14 nM |  |
| Cn1cc(NC(=O)c2cnn3cccnc23)c(-c2cc(S(=O)(=O)N3CCC3)ccc2OC(F)F)n1 [Example 21, N-[3-[5-(azetidin-1-ylsulfonyl)-2-(difluoromethoxy)phenyl]-1-methyl-pyrazol-4-yl]pyrazolo[1,5-a]pyrimidine-3-carboxamide] |  | 0.22 nM | 83% | 14 nM |  |
| Cn1cc(NC(=O)c2cnn3cccnc23)c(-c2cc(S(=O)(=O)C3CC3)ccc2OC(F)F)n1 [Example 22, N-[3-[5-cyclopropylsulfonyl-2-(difluoromethoxy)phenyl]-1-methyl-pyrazol-4-yl]pyrazolo[1,5-a]pyrimidine-3-carboxamide] |  | 0.46 nM | 88.7% | 23 nM |  |
| CNS(=O)(=O)c1ccc(OC(F)F)c(-c2nn(C)cc2NC(=O)c2cnn3cccnc23)c1 [Example 26, N-[3-[2-(difluoromethoxy)-5-(methylsulfamoyl)phenyl]-1-methyl-pyrazol-4-yl]pyrazolo[1,5-a]pyrimidine-3-carboxamide] |  | 0.16 nM | 86.9% | 11 nM |  |
| C[C@H](Cn1cc(S(=O)(=O)c2ccc(OC(F)F)c(-c3nn(C)cc3NC(=O)c3cnn4cccnc34)c2)cn1)N(C)C [Example 59, N-[3-[2-(difluoromethoxy)-5-[1-[(2R)-2-(dimethylamino)propyl]pyrazol-4-yl]sulfonyl-phenyl]-1-methyl-pyrazol-4-yl]pyrazolo[1,5-a]pyrimidine-3-carboxamide] |  | 0.53 nM |  | 32 nM |  |
